{"source": "patent US8541588B2", "about": "“Sulfonamide derivatives” (Pfizer Limited, priority 2009, dated 2013)", "biological_target": "T1, Nav1.7 (or SCN9A) channel; HEK cells stably transfected with hSCN9A (Homo sapiens, UniProt Q15858)", "T1 construct": "expressed in transfected cells", "T1 sequence (Q15858 whole entry)": "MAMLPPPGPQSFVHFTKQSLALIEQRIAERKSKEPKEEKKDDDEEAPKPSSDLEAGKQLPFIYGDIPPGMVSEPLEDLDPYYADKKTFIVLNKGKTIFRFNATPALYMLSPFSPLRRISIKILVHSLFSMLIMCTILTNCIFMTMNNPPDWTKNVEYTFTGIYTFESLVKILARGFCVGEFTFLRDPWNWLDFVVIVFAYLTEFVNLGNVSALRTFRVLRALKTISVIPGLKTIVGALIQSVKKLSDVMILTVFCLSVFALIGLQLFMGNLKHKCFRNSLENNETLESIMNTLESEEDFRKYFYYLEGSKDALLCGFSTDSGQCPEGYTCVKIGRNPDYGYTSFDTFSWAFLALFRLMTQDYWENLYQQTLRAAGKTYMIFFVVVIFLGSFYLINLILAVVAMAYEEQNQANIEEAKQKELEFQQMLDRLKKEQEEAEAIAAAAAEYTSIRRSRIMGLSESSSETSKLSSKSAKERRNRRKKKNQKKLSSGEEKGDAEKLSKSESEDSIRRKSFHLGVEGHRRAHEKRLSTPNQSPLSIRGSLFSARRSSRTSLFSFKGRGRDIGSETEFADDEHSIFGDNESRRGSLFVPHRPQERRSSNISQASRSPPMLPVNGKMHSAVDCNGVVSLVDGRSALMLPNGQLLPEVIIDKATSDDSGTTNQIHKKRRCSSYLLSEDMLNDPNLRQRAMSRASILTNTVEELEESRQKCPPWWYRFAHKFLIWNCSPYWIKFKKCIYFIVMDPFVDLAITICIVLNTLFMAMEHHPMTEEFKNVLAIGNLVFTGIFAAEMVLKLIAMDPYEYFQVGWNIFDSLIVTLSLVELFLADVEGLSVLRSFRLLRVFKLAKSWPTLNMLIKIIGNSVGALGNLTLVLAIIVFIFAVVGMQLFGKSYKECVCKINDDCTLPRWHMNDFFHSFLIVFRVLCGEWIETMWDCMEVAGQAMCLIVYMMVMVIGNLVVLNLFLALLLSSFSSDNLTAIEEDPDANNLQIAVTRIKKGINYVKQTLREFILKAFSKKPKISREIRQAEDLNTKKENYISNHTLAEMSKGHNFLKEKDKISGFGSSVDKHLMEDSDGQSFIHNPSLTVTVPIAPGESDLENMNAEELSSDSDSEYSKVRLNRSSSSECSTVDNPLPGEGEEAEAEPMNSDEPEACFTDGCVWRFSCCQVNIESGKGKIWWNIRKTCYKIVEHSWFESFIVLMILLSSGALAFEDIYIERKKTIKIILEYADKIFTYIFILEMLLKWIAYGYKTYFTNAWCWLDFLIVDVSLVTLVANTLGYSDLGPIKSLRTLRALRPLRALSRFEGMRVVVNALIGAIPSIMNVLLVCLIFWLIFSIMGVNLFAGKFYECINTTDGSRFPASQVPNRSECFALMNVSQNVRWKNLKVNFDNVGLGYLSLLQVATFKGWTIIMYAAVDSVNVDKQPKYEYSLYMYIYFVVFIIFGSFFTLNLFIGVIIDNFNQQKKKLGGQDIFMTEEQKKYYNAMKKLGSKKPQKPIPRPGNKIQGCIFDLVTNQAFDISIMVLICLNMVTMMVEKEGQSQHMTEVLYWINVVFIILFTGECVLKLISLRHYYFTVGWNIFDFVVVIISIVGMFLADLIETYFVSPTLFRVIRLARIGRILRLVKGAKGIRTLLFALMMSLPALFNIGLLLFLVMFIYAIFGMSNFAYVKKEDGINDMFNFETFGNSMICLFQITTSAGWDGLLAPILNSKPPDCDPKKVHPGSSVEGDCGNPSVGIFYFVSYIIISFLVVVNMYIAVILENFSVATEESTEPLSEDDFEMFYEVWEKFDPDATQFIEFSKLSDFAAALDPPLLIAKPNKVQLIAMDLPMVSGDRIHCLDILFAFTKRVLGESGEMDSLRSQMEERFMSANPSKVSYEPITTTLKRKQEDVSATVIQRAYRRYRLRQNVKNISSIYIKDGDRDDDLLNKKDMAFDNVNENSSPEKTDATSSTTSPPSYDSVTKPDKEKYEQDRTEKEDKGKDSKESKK", "test": "Nav1.7 block, PatchXpress 7000 automated whole-cell voltage clamp, estimated IC50 (EIC50)", "assay_type": "cell-based", "details": "estimated IC50, hSCN9A HEK cells, PatchXpress platform"}
{"molecule": "Nc1n[nH]cc1-c1cc(Cl)ccc1Oc1cc(F)c(S(=O)(=O)Nc2cccnn2)cc1Cl", "note": "[Example 1038, 4-[2-(3-amino-1H-pyrazol-4-yl)-4-chlorophenoxy]-5-chloro-2-fluoro-N-pyridazin-3-ylbenzenesulfonamide]", "values": [{"measurement": "IC50", "setting": "Examples 815-1040", "value": 34, "unit": "nM"}]}
{"molecule": "Cn1nccc1-c1cc(Cl)ccc1Oc1ccc(S(=O)(=O)/N=c2\\sccn2COP(=O)(O)O)cc1C#N", "note": "[Example 1039, [(2Z)-2-[({4-[4-Chloro-2-(1-methyl-1H-pyrazol-5-yl)phenoxy]-3-cyanophenyl}sulfonyl)imino]-1,3-thiazol-3(2H)-yl]methyl dihydrogen phosphate]", "values": [{"measurement": "IC50", "setting": "Examples 815-1040", "value": 310, "unit": "nM"}]}
{"molecule": "tert-Butyl [(5-chloro-2,4-difluorophenyl)sulfonyl](5-cyano-1,3-thiazol-4-yl)carbamate [Example 516]", "values": [{"measurement": "IC50", "setting": "Examples 283-814", "value": 10000, "unit": "nM"}]}
